Assay results reported in patent publication US20230310472A1, “Stable Topical Formulations of 1(R)-4-(5-(4-Methoxy-3-Propoxphenyl)Pyridin-3-YL)-1,2-OX-Aborolan-2-OL” (Pfizer Inc., priority 2020, published 2023).

Experiments:
Type in all cases: in vitro ADME
human hepatocytes = assay: In vitro metabolism in hepatocytes; settings: non-radiolabeled
Source text: (§1) An assessment of the metabolism of non-radiolabeled PF-07038124 was 5 conducted in vitro using mouse, rat, dog, monkey and human hepatocytes. […] The primary routes of metabolism were hydrolysis/oxidation of the oxaborole ring to yield the diol (PF-07086920), glucuronidation of the pyridyl nitrogen, hydroxylation on the propyl group of the phenoxypropyl moiety, and demethylation of the methoxy group (shown below). All metabolites detected in mouse, rat, dog, and monkey hepatocytes were also observed in human hepatocytes.

mouse hepatocytes = assay: In vitro metabolism in hepatocytes; settings: non-radiolabeled
Source text: as §1

dog hepatocytes = assay: In vitro metabolism in hepatocytes; settings: non-radiolabeled
Source text: as §1

monkey hepatocytes = assay: In vitro metabolism in hepatocytes; settings: non-radiolabeled
Source text: as §1

rat hepatocytes = assay: In vitro metabolism in hepatocytes; settings: non-radiolabeled
Source text: as §1

[1] = Stability on incubation in blood (LC-MS/MS); settings: for concentration of PF-07038124 following incubation / concentration of PF-07086920 following incubation of PF-07038124: 1 hour at 1 μM; for chemical stability in blood: oxidation of the oxaborole ring to diol
Protocol: One of the major metabolic pathways in humans was formation of the oxaborole ring opened molecule, PF-07086920. […] Following incubation for 1 hour at 1 μM in human and rat blood, the concentration of PF-07038124 declined whereas the concentration of PF-07086920 increased in both human and rat blood as determined by liquid chromatography-tandem mass spectrometry. In addition to being a metabolite, PF-07086920 was also determined to be a degradant in the formulations comprising PF-07038124.

metabolism of PF-07038124 in hepatocytes (human hepatocytes)	metabolism of PF-07038124 in hepatocytes (mouse hepatocytes)	metabolism of PF-07038124 in hepatocytes (dog hepatocytes)	metabolism of PF-07038124 in hepatocytes (monkey hepatocytes)	metabolism of PF-07038124 in hepatocytes (rat hepatocytes)	concentration of PF-07038124 following incubation ([1]; human blood)	chemical stability in blood ([1]; human blood)	concentration of PF-07038124 following incubation ([1]; rat blood)	chemical stability in blood ([1]; rat blood)	concentration of PF-07086920 following incubation of PF-07038124 ([1]; human blood)	concentration of PF-07086920 following incubation of PF-07038124 ([1]; rat blood)	SMILES
Moderate to extensive metabolism	Moderate to extensive metabolism	Moderate to extensive metabolism	Moderate to extensive metabolism	Moderate to extensive metabolism	declined	chemically unstable	declined	chemically unstable	–	–	CCCOc1cc(-c2cncc([C@@H]3COB(O)C3)c2)ccc1OC [PF-07038124, (R)-4-(5-(4-methoxy-3-propoxyphenyl)pyridin-3-yl)-1,2-oxaborolan-2-ol]
–	–	–	–	–	–	–	–	–	increased	increased	CCCOc1cc(-c2cncc(C(CO)CO)c2)ccc1OC [PF-07086920, 2-(5-(4-methoxy-3-propoxyphenyl)pyridin-3-yl)propane-1,3-diol]
